Target: T1, human microsomal FMO1 (Homo sapiens, UniProt Q01740)
T1 sequence (Q01740 2-532): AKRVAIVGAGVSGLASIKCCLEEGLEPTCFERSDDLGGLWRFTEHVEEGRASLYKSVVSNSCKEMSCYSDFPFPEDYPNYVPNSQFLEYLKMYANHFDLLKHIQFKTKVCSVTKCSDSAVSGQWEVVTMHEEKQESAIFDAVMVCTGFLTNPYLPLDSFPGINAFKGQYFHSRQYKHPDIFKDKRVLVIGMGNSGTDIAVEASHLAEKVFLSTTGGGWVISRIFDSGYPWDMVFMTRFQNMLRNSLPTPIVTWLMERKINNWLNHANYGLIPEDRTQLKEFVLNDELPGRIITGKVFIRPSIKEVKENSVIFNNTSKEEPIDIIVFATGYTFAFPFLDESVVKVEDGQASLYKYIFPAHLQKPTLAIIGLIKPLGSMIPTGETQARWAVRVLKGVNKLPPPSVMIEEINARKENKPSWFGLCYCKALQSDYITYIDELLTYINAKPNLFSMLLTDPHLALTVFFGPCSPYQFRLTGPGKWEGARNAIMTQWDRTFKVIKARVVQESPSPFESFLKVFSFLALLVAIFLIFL
Assay: absorption spectrum
Format: biochemical
Settings: PBS; microsomal FMO1 as positive control

`Cc1cc2nc3c(=O)[nH]c(=O)nc-3n(C[C@H](O)[C@H](O)[C@H](O)COP(=O)(O)OP(=O)(O)OC[C@H]3O[C@@H](n4cnc5c(N)ncnc54)[C@H](O)[C@@H]3O)c2cc1C` [FAD] was tested, and the absorption spectrum was “FAD bound to human microsomal FMO1 (orange)”.
